Assay results taken from US20220332839A1, “USE OF PRG4 TO TREAT CANCER” (Lubris LLC, priority 2019, published 2022).

How the values were obtained:
Format in all cases: cell-based, human
[1] = test system: HAS2; assay: HAS2 protein abundance in MDA-MB-231 cells (immunoblot); settings: 100 pM TGFβ; 100 μg/mL rhPRG4 in the absence or presence of TGFβ
Method: Cells were washed with PBS to remove all growth media. Appropriate volume of TNTE lysis buffer (50 mM Tris, 150 mM NaCl, 1 mM EDTA, 0.5% [v/v] Triton-X-100) containing protease and phosphatase inhibitors, was added to the cell monolayer and incubated at 4° C. under vigorous shaking for 20 minutes. Lysates were then collected in microcentrifuge tubes and centrifuged at 13,000 g for 10 minutes at 4° C. 5 μL of the lysate were subjected to protein concentration determination using Bradford-based protein assays (Bio-Rad Laboratories, Canada). Lysates were boiled for 3 minutes at 95° C. in dithiothreitol (DTT)-containing Laemmli sample buffer. For immunoprecipitation analyses, lysates were incubated with appropriate antibodies at 4° C. with gentle rocking for 3 h after which immunocomplexes were incubated with Protein G-conjugated agarose beads (UBPBio, USA) at 4° C. with gentle rocking for 3 h. Finally, the beads were washed with TNTE wash buffer (0.1% [v/v] Triton-X-100) and boiled for 5 minutes at 95° C. in dithiothreitol (DTT) containing Laemmli sample buffer. Immunoprecipitates and input lysates were then resolved by sodium dodecyl sulfate-polyacrylamide electrophoresis (SDS-PAGE) and transferred onto a nitrocellulose membrane (Bio-Rad Laboratories, Canada). […] Densitometric analyses were performed using Quantity One software (Bio-Rad Laboratories, Canada).

[2] = test system: 3TP-Lux reporter; assay: 3TP-Lux luciferase reporter assay; settings: 100 pM TGFβ
Method: MDA-MB-231 cells were seeded in 24-well plates at approximately 6×10^4 cells/well one day prior to transfections. Cells were co-transfected with the PAI1-promoter-driven firefly luciferase Reporter (3TP-Lux) and the CMV-Renilla luciferase control reporter constructs. 18 h post transfection, cells were serum-starved (0.2% FBS containing DMEM) for 4 h and then incubated in fresh low-serum (0.2% FBS containing DMEM) containing media in the absence or presence of 100 pM TGFβ, 100 μg/mL rhPRG4 alone or together and left overnight. Lysates were prepared and analyzed for luciferase activity using a commercially available dual luciferase assay kit (Promega, Canada). Arbitrary luciferase activity (relative light units) values were normalized to Renilla luciferase activity to account for variations in transfection efficiency. For each transfection, percent increase of PAI1 promoter driven luciferase reporter gene expression was also determined and expressed relative to luciferase activity of the respective basal condition lysates. Each experimental condition was carried out in triplicate.

[3] = test system: MDA-MB-231 cell-derived organoids; assay: Laminin/actin fluorescence staining of 3D organoids; settings: 8 day old organoids; absence or presence of TGFβ
Method: For immunofluorescence analysis of 3D-organoids, 600 MDA-MB-231 cells were grown within 80 μL of 50% Matrigel on top of 80 μL of 33% Matrigel coat in each well of ultra-low attachment 8-well chamber slides (Millipore-Sigma, USA). After DIC imaging on Day 8, the live multicellular structures were fixed with 4% formaldehyde, followed by permeabilization using 0.5% ice-cold Triton X-100 solution and blocking using 10% bovine serum albumin (BSA) in phosphate-buffered saline (PBS). For immunofluorescence analysis of monolayer cell culture, cells were seeded onto wells of a Falcon 8-well chamber culture slides (Corning Incorporated, USA), followed by fixing and permeabilization as described for the 3D cultures, and blocking with 5% BSA and 5% calf serum in PBS. Laminin and CD44 in cells were visualized by subjecting the three-dimensional or monolayer cultures to indirect immunofluorescence using a rat anti-laminin antibody (Abcam, Canada) and rat anti-CD44 antibody (Thermo Fisher, Canada) as the primary antibody, respectively, and Alexa 647-conjugated anti-rat IgG (ThermoFisher, Canada) as the secondary antibody. Actin in cells was visualized by incubating the fixed cultures with tetramethylrhodamine isothiocyanate (TRITC)-conjugated phalloidin (Millipore-Sigma, Canada). The DNA binding dye bisbenzimide (Hoechst 33342; Invitrogen, Canada) was used to detect nuclei. […]

[4] = test system: MDA-MB-231 cells; assay: In vitro trans-well invasion assay
Method: Overnight 0.2% FBS-containing DMEM incubated, i.e. serum-starved, MDA-MB-231 cells were used for the transwell invasion using polycarbonate filters (24-well insert, pore size 8 μm; BD Biosciences, Canada). Prior to addition of cells, each insert was placed within a well of a 24-well tissue culture plate and equilibrated with 0.5 mL serum-free DMEM, added both to the upper and lower chambers at 37° C. for 2 h. The equilibration media was then gently removed and upper chamber surface of the insert was coated with 50 μL of 3% Matrigel and allowed to solidify at 37° C. for 1 h. 1×10^5 serum-starved MDA-MB-231 cells were resuspended in 0.5 mL of serum-free DMEM and added to the upper Matrigel-coated chamber. 500 μL complete growth medium alone or containing specific reagents, as described in the respective figure descriptions, was added to the lower chambers. Cells were allowed to invade the matrix for 12 h at 37° C. after which non-adherent cells were removed by PBS washing of cell layers on the upper chamber three times. During the second wash a cotton tip applicator was used to gently scrape away the adherent cells on the upper surface of the membrane. Invading cells were fixed by immersing the transwell inserts in 100% methanol for 10 minutes at −20° C., followed by staining with 0.5% crystal violet dye (EMD Millipore, Canada) for 1 h at room temperature. Eight randomly chosen fields of each stained membrane were imaged at 10× objective of a DIC microscope (Olympus IX70) coupled to a digital camera. Cell numbers were obtained by counting the number of crystal violet stained cells in each field using a handheld counter. The average cell numbers for all images per treatment conditions were calculated and used for further statistical analysis. Each experiment was performed at least three independent times.

| Substance | protein abundance of HAS2, immunoblotting [1] | 3TP-Lux reporter activity, TGFβ alone [2] | basal lamina (laminin) status and actin organization [3] | invasion of cells, stimulus alone vs untreated control ([4]; 100 pM TGFβ, 400 μg/mL LMWHA) | TGFβ-induced 3TP-Lux reporter activity ([2]; 100 μg/mL rhPRG4, overnight, 0.2% FBS) | invasion of cells in the absence or presence of TGFβ ([4]; 100 μg/mL rhPRG4, 100 pM TGFβ, 12 h) | cell invasion in the presence of LMWHA ([4]; 400 μg/mL LMWHA, 5 μg/mL CD44 neutralizing antibody, 100 μg/mL rhPRG4) |
| --- | --- | --- | --- | --- | --- | --- | --- |
| TGFβ: recombinant human mature transforming growth factor beta (R&D systems) [reference compound] | increased the protein abundance of HAS2 | significant induction of 3TP-Lux reporter activity | disrupted basement membrane organization | promote the invasion of MDA-MB-231 cells | – | – | – |
| rhPRG4: full-length recombinant human PRG4 (lubricin) glycoprotein produced by CHO-M cells; residues 25-1404 of SEQ ID NO:1 | suppressed the protein abundance of HAS2 | – | promoted cortical actin organization and solid laminin ring formation | – | did not alter TGFβ-induced 3TP-Lux reporter activity | blocked the ability of MDA-MB-231 cells to be invasive | able to inhibit breast cancer cell invasion |
